Measured values: the supplement of paper PMC10307832

Compound: CN1CCC(CC1)OC2=CC(=C(C=C2)NC3=NC=C4C(=N3)N(C(=O)N4C)C5CCCC5)OC [AZ3146] + Nc1ncn([C@H]2C[C@H](O)[C@@H](CO)O2)c(=O)n1 [Decitabine] (partner 2 µM)
Assay: relative viability (nuclei count vs DMSO), 5 days (fraction); higher = more cells survive
Details: first compound 8 µM
How it was run: (§1)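 Relative viability divides the nuclei count in treated wells by that in vehicle wells. Lung cancer cell lines were seeded in 1536-well plates, dosed by pin tool the next day, and fixed and stained after 5 days in one step with final 0.05% Triton X-100, 1% formaldehyde and 1 ug/ml Hoechst. Dosing was a single drug or a fixed anchor-drug dose plus five library-drug doses (not always all listed) in √10 steps, and values are medians of duplicate plates imaged at 4×.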

**Q.** Which relative viability does the source give for NCI-H1975 here?
**A.** 0.415

Compound: CN1CCC(CC1)OC2=CC(=C(C=C2)NC3=NC=C4C(=N3)N(C(=O)N4C)C5CCCC5)OC [AZ3146] + NC(=O)Nc1cc(-c2cccc(F)c2)sc1C(=O)N[C@H]1CCCNC1 [AZD7762] (partner 0.2 µM)
Assay: as above
Details: first compound 0.08 µM
How it was run: as §1

**Q.** With HARA as the cell line, how does the relative viability read?
**A.** 0.189

**Q.** With LCLC-103H as the cell line, how does the relative viability read?
**A.** 0.623

**Q.** For LXF-289, which relative viability is on record?
**A.** 1.02

**Q.** For NCI-H358, which relative viability is on record?
**A.** 0.346

**Q.** Which relative viability does the source give for NCI-H322M here?
**A.** 0.595

**Q.** How did the relative viability turn out when LC-2-ad was run?
**A.** 0.75

**Q.** How did the relative viability turn out when HCC-827 was run?
**A.** 0.154

**Q.** HCC-15 was tested. Which relative viability did it give?
**A.** 1.27

**Q.** How did the relative viability turn out when HOP-62 was run?
**A.** 0.276

**Q.** Which relative viability does the source give for NCI-H460 here?
**A.** 0.461

**Q.** NCI-H2085 was tested. Which relative viability did it give?
**A.** 0.912

**Q.** A-427 was tested. Which relative viability did it give?
**A.** 0.622

**Q.** How did the relative viability turn out when NCI-H838 was run?
**A.** 0.931

**Q.** Which relative viability does the source give for NCI-H1792 here?
**A.** 0.414

**Q.** How did the relative viability turn out when NCI-H596 was run?
**A.** 1.11

**Q.** With NCI-H3122 as the cell line, how does the relative viability read?
**A.** 1.01

**Q.** NCI-H1395 was tested. Which relative viability did it give?
**A.** 0.352

**Q.** With 201T as the cell line, how does the relative viability read?
**A.** 0.534

**Q.** NCI-H1993 was tested. Which relative viability did it give?
**A.** 0.662

**Q.** For NCI-H1355, which relative viability is on record?
**A.** 0.621

**Q.** How did the relative viability turn out when NCI-H2405 was run?
**A.** 0.838

**Q.** With NCI-H1437 as the cell line, how does the relative viability read?
**A.** 0.887

**Q.** How did the relative viability turn out when H3255 was run?
**A.** 0.863

**Q.** For NCI-H2347, which relative viability is on record?
**A.** 0.577

**Q.** With NCI-H1975 as the cell line, how does the relative viability read?
**A.** 0.628

Same assay, conditions: first compound 0.253 µM

**Q.** With HARA as the cell line, how does the relative viability read?
**A.** 0.416

**Q.** LCLC-103H was tested. Which relative viability did it give?
**A.** 0.714

**Q.** LXF-289 was tested. Which relative viability did it give?
**A.** 1.16

**Q.** For NCI-H358, which relative viability is on record?
**A.** 0.469

**Q.** NCI-H322M was tested. Which relative viability did it give?
**A.** 0.529

**Q.** For LC-2-ad, which relative viability is on record?
**A.** 0.841

**Q.** HCC-827 was tested. Which relative viability did it give?
**A.** 0.17

**Q.** Which relative viability does the source give for HCC-15 here?
**A.** 1.1

**Q.** How did the relative viability turn out when HOP-62 was run?
**A.** 0.61

**Q.** Which relative viability does the source give for NCI-H460 here?
**A.** 0.744

**Q.** How did the relative viability turn out when LU99A was run?
**A.** 0.378

**Q.** NCI-H2085 was tested. Which relative viability did it give?
**A.** 0.974

**Q.** With A-427 as the cell line, how does the relative viability read?
**A.** 0.665

**Q.** NCI-H838 was tested. Which relative viability did it give?
**A.** 0.921

**Q.** With NCI-H1792 as the cell line, how does the relative viability read?
**A.** 0.631

**Q.** NCI-H596 was tested. Which relative viability did it give?
**A.** 1.21

**Q.** For NCI-H3122, which relative viability is on record?
**A.** 0.933

**Q.** How did the relative viability turn out when BEN was run?
**A.** 0.608

**Q.** Which relative viability does the source give for NCI-H1395 here?
**A.** 0.389

**Q.** 201T was tested. Which relative viability did it give?
**A.** 0.643

**Q.** How did the relative viability turn out when NCI-H1993 was run?
**A.** 0.695

**Q.** For NCI-H1355, which relative viability is on record?
**A.** 0.738

**Q.** NCI-H2405 was tested. Which relative viability did it give?
**A.** 0.771

**Q.** Which relative viability does the source give for NCI-H1437 here?
**A.** 1.2

**Q.** For H3255, which relative viability is on record?
**A.** 0.837

**Q.** For NCI-H2347, which relative viability is on record?
**A.** 0.934

Same assay, conditions: first compound 0.8 µM

**Q.** For HARA, which relative viability is on record?
**A.** 0.344

**Q.** Which relative viability does the source give for LCLC-103H here?
**A.** 0.767

**Q.** Which relative viability does the source give for LXF-289 here?
**A.** 1.05

**Q.** For NCI-H358, which relative viability is on record?
**A.** 0.363

**Q.** How did the relative viability turn out when NCI-H322M was run?
**A.** 0.581

**Q.** With LC-2-ad as the cell line, how does the relative viability read?
**A.** 0.822

**Q.** For HCC-827, which relative viability is on record?
**A.** 0.188

**Q.** Which relative viability does the source give for HCC-15 here?
**A.** 1.33

**Q.** Which relative viability does the source give for HOP-62 here?
**A.** 0.485

**Q.** NCI-H460 was tested. Which relative viability did it give?
**A.** 0.522

**Q.** With LU99A as the cell line, how does the relative viability read?
**A.** 0.295

**Q.** With NCI-H2085 as the cell line, how does the relative viability read?
**A.** 0.95

**Q.** Which relative viability does the source give for A-427 here?
**A.** 0.56

**Q.** Which relative viability does the source give for NCI-H838 here?
**A.** 0.844

**Q.** Which relative viability does the source give for NCI-H1792 here?
**A.** 0.641

**Q.** NCI-H596 was tested. Which relative viability did it give?
**A.** 1.15

**Q.** Which relative viability does the source give for NCI-H3122 here?
**A.** 0.966

**Q.** How did the relative viability turn out when BEN was run?
**A.** 0.668

**Q.** How did the relative viability turn out when 201T was run?
**A.** 0.634

**Q.** NCI-H1993 was tested. Which relative viability did it give?
**A.** 0.812

**Q.** Which relative viability does the source give for NCI-H1355 here?
**A.** 0.676

**Q.** With NCI-H2405 as the cell line, how does the relative viability read?
**A.** 0.702

**Q.** How did the relative viability turn out when NCI-H1437 was run?
**A.** 1.09

**Q.** With H3255 as the cell line, how does the relative viability read?
**A.** 0.768

**Q.** Which relative viability does the source give for NCI-H2347 here?
**A.** 0.649

**Q.** For NCI-H1975, which relative viability is on record?
**A.** 0.752

Same assay, conditions: first compound 2.53 µM

**Q.** How did the relative viability turn out when HARA was run?
**A.** 0.21

**Q.** With LCLC-103H as the cell line, how does the relative viability read?
**A.** 0.789

**Q.** With LXF-289 as the cell line, how does the relative viability read?
**A.** 1.1

**Q.** Which relative viability does the source give for NCI-H358 here?
**A.** 0.581

**Q.** For NCI-H322M, which relative viability is on record?
**A.** 0.825

**Q.** For LC-2-ad, which relative viability is on record?
**A.** 0.886

**Q.** Which relative viability does the source give for HCC-827 here?
**A.** 0.212

**Q.** With HCC-15 as the cell line, how does the relative viability read?
**A.** 1.1

**Q.** With HOP-62 as the cell line, how does the relative viability read?
**A.** 0.582

**Q.** NCI-H460 was tested. Which relative viability did it give?
**A.** 0.546

**Q.** LU99A was tested. Which relative viability did it give?
**A.** 0.276

**Q.** For NCI-H2085, which relative viability is on record?
**A.** 1.04

**Q.** A-427 was tested. Which relative viability did it give?
**A.** 0.527

**Q.** Which relative viability does the source give for NCI-H838 here?
**A.** 0.963

**Q.** For NCI-H1792, which relative viability is on record?
**A.** 0.601

**Q.** With NCI-H596 as the cell line, how does the relative viability read?
**A.** 0.986

**Q.** For NCI-H3122, which relative viability is on record?
**A.** 1.06

**Q.** With BEN as the cell line, how does the relative viability read?
**A.** 0.589

**Q.** How did the relative viability turn out when NCI-H1395 was run?
**A.** 0.379

**Q.** Which relative viability does the source give for 201T here?
**A.** 0.553

**Q.** With NCI-H1993 as the cell line, how does the relative viability read?
**A.** 1.01

**Q.** With NCI-H1355 as the cell line, how does the relative viability read?
**A.** 0.672

**Q.** NCI-H2405 was tested. Which relative viability did it give?
**A.** 0.589

**Q.** With NCI-H1437 as the cell line, how does the relative viability read?
**A.** 1.14

**Q.** Which relative viability does the source give for H3255 here?
**A.** 0.825

**Q.** With NCI-H2347 as the cell line, how does the relative viability read?
**A.** 0.746

**Q.** NCI-H1975 was tested. Which relative viability did it give?
**A.** 0.778

Same assay, conditions: first compound 8 µM

**Q.** How did the relative viability turn out when HARA was run?
**A.** 0.169

**Q.** Which relative viability does the source give for LCLC-103H here?
**A.** 0.831

**Q.** How did the relative viability turn out when LXF-289 was run?
**A.** 1.05

**Q.** Which relative viability does the source give for NCI-H358 here?
**A.** 0.313

**Q.** For NCI-H322M, which relative viability is on record?
**A.** 0.506

**Q.** For LC-2-ad, which relative viability is on record?
**A.** 0.78

**Q.** HCC-827 was tested. Which relative viability did it give?
**A.** 0.213

**Q.** HCC-15 was tested. Which relative viability did it give?
**A.** 1.16

**Q.** How did the relative viability turn out when HOP-62 was run?
**A.** 0.791

**Q.** With NCI-H460 as the cell line, how does the relative viability read?
**A.** 0.559

**Q.** For LU99A, which relative viability is on record?
**A.** 0.264

**Q.** How did the relative viability turn out when NCI-H2085 was run?
**A.** 0.708

**Q.** Which relative viability does the source give for A-427 here?
**A.** 0.508

**Q.** For NCI-H838, which relative viability is on record?
**A.** 0.698

**Q.** NCI-H1792 was tested. Which relative viability did it give?
**A.** 0.617

**Q.** With NCI-H596 as the cell line, how does the relative viability read?
**A.** 1.13

**Q.** NCI-H3122 was tested. Which relative viability did it give?
**A.** 0.973

**Q.** BEN was tested. Which relative viability did it give?
**A.** 0.68

**Q.** Which relative viability does the source give for NCI-H1395 here?
**A.** 0.4

**Q.** 201T was tested. Which relative viability did it give?
**A.** 0.594

**Q.** With NCI-H1993 as the cell line, how does the relative viability read?
**A.** 0.581

**Q.** Which relative viability does the source give for NCI-H1355 here?
**A.** 0.551

**Q.** Which relative viability does the source give for NCI-H2405 here?
**A.** 0.618

**Q.** Which relative viability does the source give for NCI-H1437 here?
**A.** 1.1

**Q.** With H3255 as the cell line, how does the relative viability read?
**A.** 0.841

**Q.** With NCI-H2347 as the cell line, how does the relative viability read?
**A.** 0.677
